Laboratory results taken from the supplement of paper PMC10307832.

Columns and labels:
Assay in all cases: relative viability (nuclei count vs DMSO), 5 days (fraction); higher = more cells survive
BGJ398 + Pemetrexed = compound: CCN1CCN(c2ccc(Nc3cc(N(C)C(=O)Nc4c(Cl)c(OC)cc(OC)c4Cl)ncn3)cc2)CC1 [BGJ398] + Nc1nc2[nH]cc(CCc3ccc(C(=O)N[C@@H](CCC(=O)O)C(=O)O)cc3)c2c(=O)[nH]1 [Pemetrexed] (partner 0.2 µM)
In short: (§1)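 For relative viability, nuclei counts in treated wells were divided by those in vehicle wells. Lung cancer cell lines had been pin-tool dosed in 1536-well plates the day after seeding and cultured for 5 days, then fixed and stained in one step (final 0.05% Triton X-100, 1% formaldehyde, 1 ug/ml Hoechst) and imaged at 4×. Doses were one drug alone or a fixed anchor-drug dose plus five library-drug doses (not always all listed) in √10 steps, and values are duplicate-plate medians.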

[1] = compound: C1=CC2=NC=CN=C2C=C1/C=C/3\C(=O)NC(=O)S3 + COc1cccc2cc(-c3nc([C@H]4CC[C@H](C(=O)O)CC4)n4ncnc(N)c34)[nH]c12 [OSI-027] (partner 0.5 µM)
In short: as §1

BGJ398 = compound: CCN1CCN(c2ccc(Nc3cc(N(C)C(=O)Nc4c(Cl)c(OC)cc(OC)c4Cl)ncn3)cc2)CC1 [BGJ398]
In short: (§2)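 Lung cancer cell lines in 1536-well plates were exposed by pinning to five library-drug doses (not always all listed) √10 apart, following an overnight hold at 37 °C. MetaXpress counted Hoechst-stained nuclei from 4× images taken after 5 days without medium change. Viability is the median ratio of treated-well to vehicle-well nuclei across plates. Plates required control CV below 25% and at least one doubling.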

[2] = compound: C1=CC2=NC=CN=C2C=C1/C=C/3\C(=O)NC(=O)S3
In short: as §2

| Cell Line | relative viability (BGJ398 + Pemetrexed; first compound 0.01 µM) | relative viability (BGJ398 + Pemetrexed; first compound 0.1 µM) | relative viability (BGJ398 + Pemetrexed; first compound 1 µM) | relative viability ([1]; first compound 0.02 µM) | relative viability ([1]; first compound 0.06325 µM) | relative viability ([1]; first compound 0.2 µM) | relative viability ([1]; first compound 0.6325 µM) | relative viability ([1]; first compound 2 µM) | relative viability (BGJ398; 0.01 µM) | relative viability (BGJ398; 0.1 µM) | relative viability (BGJ398; 0.3162 µM) | relative viability (BGJ398; 1 µM) | relative viability ([2]; 0.02 µM) | relative viability ([2]; 0.06325 µM) | relative viability ([2]; 0.2 µM) | relative viability ([2]; 0.6325 µM) | relative viability ([2]; 2 µM) | relative viability (BGJ398 + Pemetrexed; first compound 0.03162 µM) | relative viability (BGJ398; 0.03162 µM) | relative viability (BGJ398 + Pemetrexed; first compound 0.3162 µM) |
| --- | --- | --- | --- | --- | --- | --- | --- | --- | --- | --- | --- | --- | --- | --- | --- | --- | --- | --- | --- | --- |
| PC-3 [JPC-3] | 1.16 | 0.766 | 0.992 | 0.711 | 0.777 | 0.783 | 0.767 | 0.636 | 1.05 | 1.05 | 0.695 | 0.919 | 0.991 | 1.07 | 1.06 | 1 | 1.04 |  |  |  |
| PC-14 | 0.13 | 0.131 | 0.151 | 0.771 | 0.67 | 0.815 | 0.804 | 0.692 | 1.01 | 1.04 | 0.766 | 0.93 | 1.02 | 1.02 | 1.01 | 0.982 | 0.989 | 0.132 | 0.732 |  |
| RERF-LC-KJ | 0.436 | 0.37 | 0.408 | 0.571 | 0.569 | 0.704 | 0.606 | 0.332 | 1.04 | 1.06 | 0.987 | 1.05 | 0.908 | 1.02 | 1 | 0.948 | 0.841 | 0.431 | 1.05 | 0.49 |
| SK-LU-1 | 0.866 | 1.05 | 1.07 | 0.371 | 0.358 | 0.332 | 0.396 | 0.207 | 0.983 | 1.22 | 0.978 | 1.03 | 1.06 | 1.21 | 1.09 | 1.02 | 0.969 | 1 | 1.07 | 0.936 |
| SK-MES-1 | 0.84 | 0.888 | 0.898 | 0.658 | 0.467 | 0.715 | 0.577 | 0.392 | 0.941 | 1.05 | 0.981 | 1.01 | 0.971 | 1.08 | 1.02 | 0.984 | 0.875 | 0.999 | 1.05 | 1.02 |
| SW 900 | 0.471 | 0.469 | 0.256 | 0.635 | 0.499 | 0.602 | 0.608 | 0.504 | 1 | 0.779 | 0.428 | 0.453 | 0.888 | 0.978 | 1.04 | 0.705 | 0.965 | 0.43 | 0.899 | 0.348 |
| SW 1573 | 0.817 | 0.83 | 0.944 | 0.63 | 0.946 | 0.725 | 0.532 | 0.312 | 0.975 | 0.94 | 0.893 | 0.999 | 0.984 | 1.26 | 1.09 | 0.948 | 0.79 | 0.833 | 0.934 | 0.748 |
